What was measured:
[1] = molecular target: human Bisphosphoglycerate mutase (hBPGM) (Homo sapiens (Human), UniProt P07738); test: BPGM Phosphatase Assay; type: biochemical; details: Table 6 additional results; read-out: huBPGM: phosphatase Enzyme EC50
Method: Solutions of the test compounds were then added to the plate and the DMSO content was normalized across the plate. The plate was incubated at RT for 15 min. Next, the substrate 2,3-BPG (5 μL) was added to all the wells, and the plate was sealed and incubated for 24 hr at RT. After incubation, BIOMOL green dye (40 μL) was added to all the wells, the plate was shaken to mix, and the plate was incubated at RT for 20-30 min.

[2] = molecular target: hBPGM (Homo sapiens (Human), UniProt P07738); test: BPGM Synthase Assay; type: biochemical; details: Table 6 additional results; read-out: huBPGM: synthase Enzyme IC50
Chain of hBPGM (P07738 whole entry, looked up): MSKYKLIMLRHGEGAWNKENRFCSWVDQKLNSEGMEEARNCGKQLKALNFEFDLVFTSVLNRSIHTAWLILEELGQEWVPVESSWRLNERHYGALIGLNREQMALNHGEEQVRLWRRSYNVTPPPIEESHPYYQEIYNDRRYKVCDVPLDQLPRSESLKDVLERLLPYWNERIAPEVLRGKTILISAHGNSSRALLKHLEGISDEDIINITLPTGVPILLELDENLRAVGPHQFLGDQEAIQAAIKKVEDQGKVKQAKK
Method: Example B1. BPGM Synthase Assay
The following materials were used in this assay: deionized water; Bisphosphoglycerate mutase (BPGM; Standard Buffer: 50 mM Tris, 0.01% Tween 20, pH 7.4); BPGM Reaction Buffer (50 mM Tris, 0.01% Tween 20, 3.23 mM KH2PO4, pH 7.4); dithiothreitol (DTT; Stock solution: 100 mM in Standard Buffer); 384-Well Black Assay Plate (Corning, P/N 3575); DMSO; BPGM Stock Solution (500 nM in BPGM Standard Buffer); Glyceraldehyde 3-phosphate dehydrogenase (GAPDH; Stock Solution: 40 U/mL in 20 mM Tris-HCL Buffer with 20% Glycerol, 1 mM EDTA, 1 mM DTT); Glyceraldehyde 3-phosphate (GAP; Stock Solution: 20 mM in BPGM Standard Buffer); 3-PG Stock Solution (500 μM in BPGM Standard Buffer); Nicotinamide adenine dinucleotide (NAD; Stock Solution: 50 mM in BPGM Standard Buffer); Koningic Acid (1 mM Stock in DMSO); Resazurin Stock Solution (10 mM in DMSO); Diaphorase Stock Solution (40 U/mL in BPGM Standard Buffer); DTT Reaction Buffer (1 mM DTT in BPGM Reaction Buffer); Enzyme Solution (5 nM BPGM, 0.4 U/mL GAPDH in DTT Reaction Buffer); GAPDH Solution (0.4 U/mL GAPDH in DTT Reaction Buffer); Substrate Solution (2 mM NAD, 20 μM 3PG, 800 μM GAP in DTT Reaction Buffer); and Resazurin Solution (5 U/mL Diaphorase, 500 μM Resazurin in BPGM Standard Buffer).
To the assay plate was added Enzyme Solution (20 uL) to columns 2-22 and 24 of the assay plate. To columns 1 and 23 was added GAPDH Solution (20 uL). A separate compound plate was prepared at the desired concentrations and all wells were normalized with 5% DMSO. The compound plate was incubated for 30 minutes at RT. Next, the substrate solution (20 μL) was dispensed to all reaction wells and the plate was incubated for 60 minutes at RT. Koningic acid (1 μL) was added and the plate was incubated for 10 minutes at RT. During this time period, the NADH fluorescence was read at ex: 360/em: 460. Next, Resazurin Solution (10 μL) was added to all reaction wells and the plate was incubated for 30 minutes at RT. The resorufin fluorescence was then read at ex:544/em:590.

Chain of human Bisphosphoglycerate mutase (hBPGM) (P07738 whole entry): as the sequence (P07738 whole entry, looked up) above

Row | Compound | EC50 [1] | IC50 [2]
1 | Cc1nc(Cn2cccnc2=O)sc1-c1csc(-c2cc(O)c(C(=O)O)cc2F)n1 [Example 181] | 0.08 µM | 0.21 µM
2 | Cc1nc(COc2ncccn2)sc1-c1cccc(-c2csc(C(=O)O)c2)n1 [Example 79] | 0.11 µM | 0.55 µM
3 | Cc1nc(COc2cccc(C#N)c2)sc1-c1cccc(-c2ccc(C(=O)O)c(O)c2)c1 [Example 108] | 0.5 µM | 3.2 µM
4 | Cc1nc(CNC(=O)C(C)(C)C)sc1-c1csc(-c2cc(O)c(C(=O)O)cc2F)n1 [Example 124] | 0.05 µM | 0.049 µM
5 | COC(=O)C(=O)NCc1nc(C)c(-c2csc(-c3cc(O)c(C(=O)O)cc3F)n2)s1 [Example 201] | 0.64 µM | 0.11 µM
6 | Cc1nc(CNC2CCOCC2)sc1-c1cccc(-c2ccc(C(=O)O)cc2)c1 [Example 51] | 4.3 µM | 21 µM
7 | COC(=O)NCc1nc(C)c(-c2csc(-c3ccc(C(=O)O)cc3)n2)s1 [Example 239] | > 25 µM | 0.73 µM
8 | Cc1nc(CNC(=O)c2cccnc2)sc1-c1csc(-c2cc(O)c(C(=O)O)cc2F)n1 [Example 199] | 0.32 µM | 0.067 µM
9 | Cc1nc(CNC(=O)c2ncccn2)sc1-c1csc(-c2cc(O)c(C(=O)O)cc2F)n1 [Example 192] | 0.12 µM | 0.049 µM
10 | Cc1nc(Cc2ccn(C)n2)sc1-c1cccc(-c2ccc(C(=O)O)c(O)c2)c1 [Example 253] | 0.15 µM | 0.19 µM
11 | Cc1nc(CNC(=O)C2CC2)sc1-c1csc(-c2ccc(C(=O)O)c(O)c2)n1 [Example 249] | 0.21 µM | 0.18 µM
12 | Cc1nc(Cn2c(C)cccc2=O)sc1-c1cccc(-c2ccc(C(=O)O)c(O)c2)c1 [Example 267] | 0.35 µM | 0.52 µM
13 | Cc1nc(CNC(=O)C2CCN(C)CC2)sc1-c1csc(-c2cc(O)c(C(=O)O)cc2F)n1 [Example 126] | 0.24 µM | 0.46 µM
14 | COC(=O)NCc1nc(C)c(-c2csc(-c3cc(O)c(C(=O)O)cc3C)n2)s1 [Example 130] | 0.04 µM | 0.07 µM
15 | Cc1nc(COC(=O)N(C)C)sc1-c1cccc(-c2ccc(C(=O)O)cc2)c1 [Example 67] | 0.55 µM | 0.87 µM
16 | Cc1nc(COc2cc(C(F)(F)F)nn2C)sc1-c1cccc(-c2ccc(C(=O)O)cc2)n1 [Example 65] | > 25 µM | 2.6 µM
17 | Cc1nc(C)c(-c2csc(-c3cc(O)c(C(=O)O)c(F)c3)n2)s1 [Example 255] | 1.8 µM | 0.76 µM
18 | Cc1nc(Cc2ccccc2)sc1-c1cccc(-c2ccc(C(=O)O)c(O)c2)c1 [Example 289] | 0.13 µM | 1.2 µM
19 | Cc1nc(CNC(=O)C(C)(C)N(C)C)sc1-c1csc(-c2cc(O)c(C(=O)O)cc2F)n1 [Example 123] | 9.7 µM | 0.53 µM
20 | Cc1nc(CO)sc1-c1cccc(-c2cc(C(=O)O)cs2)n1 [Example 75] | > 25 µM | 4.6 µM

Row | Compound | EC50 [1] | IC50 [2]
21 | Cc1nc(CNC(=O)c2cccnn2)sc1-c1cccc(-c2cc(O)c(C(=O)O)cc2F)n1 [Example 153] | 0.07 µM | 0.099 µM
22 | Cc1nc(CNC(=O)OCC(F)(F)F)sc1-c1csc(-c2cc(O)c(C(=O)O)cc2F)n1 [Example 136] | 0.09 µM | 0.31 µM
23 | Cc1nc(N)sc1-c1csc(-c2cc(O)c(C(=O)O)cc2F)n1 [Example 210] | 0.83 µM | 0.93 µM
24 | Cc1nc(CNC(=O)c2cc[nH]n2)sc1-c1csc(-c2cc(O)c(C(=O)O)cc2F)n1 [Example 172] | 0.04 µM | 0.04 µM
25 | Cc1nc(COc2ncccn2)sc1-c1cccc(-c2cc(O)c(C(=O)O)cc2F)n1 [Example 129] | 0.04 µM | 0.04 µM
26 | Cc1nc(CNC(=O)C(C)C)sc1-c1csc(-c2cc(O)c(C(=O)O)cc2F)n1 [Example 231] | 0.17 µM | 0.052 µM
27 | Cc1nc(CNc2ncccn2)sc1-c1csc(-c2cc(O)c(C(=O)O)cc2F)n1 [Example 149] | 0.07 µM | 0.03 µM
28 | COC(=O)NCc1nc(C)c(-c2csc(-c3c(F)cc(C(=O)O)cc3F)n2)s1 [Example 225] | 7.3 µM | 0.83 µM
29 | Cc1nc(COc2ncccn2)sc1-c1cccc(-c2c[nH]c(C(=O)O)c2)n1 [Example 76] | > 25 µM | 3.5 µM
30 | Cc1nc(C)c(-c2csc(-c3cc(O)c(C(=O)O)cc3F)c2)s1 [Example 254] | 0.22 µM | 0.29 µM
31 | Cc1nc(CNC(=O)c2cccnn2)sc1-c1csc(-c2cc(O)c(C(=O)O)cc2F)n1 [Example 171] | 0.03 µM | 0.028 µM
32 | Cc1ccnc(NCc2nc(C)c(-c3cccc(-c4ccc(C(=O)O)c(O)c4)c3)s2)c1 [Example 68] | 0.06 µM | 1.4 µM
33 | Cc1nc(CNC(=O)C(C)CN(C)C)sc1-c1csc(-c2cc(O)c(C(=O)O)cc2F)n1 (centres unmarked) [Example 117] | 8.7 µM | 0.17 µM
34 | Cc1nc(Cc2cccnc2)sc1-c1csc(-c2cc(O)c(C(=O)O)cc2F)c1 [Example 143] | 0.08 µM | 0.2 µM
35 | Cc1nc(Cc2ccn(C)n2)sc1-c1csc(-c2ccc(C(=O)O)c(O)c2)n1 [Example 189] | 0.33 µM | 0.12 µM
36 | Cc1nc(COc2ccc(C#N)cn2)sc1-c1cccc(-c2ccc(C(=O)O)c(O)c2)c1 [Example 93] | 0.27 µM | 3.3 µM
37 | Cc1nc(C)c(-c2csc(-c3ccc(O)c(C(=O)O)c3)n2)s1 [Example 321] |  | 7.3 µM
38 | CCc1nc(C)c(-c2cccc(-c3ccc(C(=O)O)c(O)c3)c2)s1 [Example 323] |  | 1.6 µM
39 | Cc1nc(COc2ccc(F)cn2)sc1-c1cccc(-c2ccc(C(=O)O)c(O)c2)n1 [Example 26] |  | 0.43 µM
40 | Cc1nc(CC(F)(F)F)sc1-c1cccc(-c2ccc(C(=O)O)c(O)c2)c1 [Example 292] |  | 5.8 µM

Row | Compound | EC50 [1] | IC50 [2]
41 | Cc1nc(Cn2cc(C(F)(F)F)cn2)sc1-c1cccc(-c2ccc(C(=O)O)cc2)n1 [Example 60] |  | 0.76 µM
42 | Cc1nc(C)c(-c2cccc(-c3ccc(C(=O)O)c(C(F)(F)F)c3)c2)s1 [Example 314] |  | 100 µM
43 | Cc1ccc(C#N)c(OCC(=O)N/N=C/c2cccc(-c3cc(O)c(C(=O)O)cc3F)c2)n1 [Example 332] |  | 0.45 µM
44 | Cc1nc(CC2CCCCC2)sc1-c1cccc(-c2ccc(C(=O)O)c(O)c2)c1 [Example 313] |  | 9.1 µM
45 | Cc1nc(COc2ccccn2)sc1-c1ccc(-c2ccc(C(=O)O)c(O)c2)s1 [Example 340] |  | 3.6 µM
46 | Cc1nc(Cn2ccccc2=O)sc1-c1cccc(-c2ccc(C(=O)O)c(O)c2)c1 [Example 290] |  | 2.2 µM
47 | Cc1nc(COc2ncccn2)sc1-c1cccc(-c2ccc(C(=O)NCC(=O)N3CCC(C(=O)O)C3)cc2)n1 (centres unmarked) [Example 91] |  | > 25 µM
48 | Cc1nc(COc2ccccn2)sc1-c1cccc(-c2ccc(C(=O)O)nc2)c1 [Example 58] |  | > 25 µM
49 | Cc1ncc(-c2cccc(-c3ccc(C(=O)O)c(O)c3)c2)s1 [Example 325] |  | 3.5 µM
50 | Cc1nc(C)c(-c2cccc(-c3ccc(C(=O)O)cc3)c2C)s1 [Example 306] |  | > 250 µM
51 | Cc1nc(CN2CCOCC2=O)sc1-c1cccc(-c2ccc(C(=O)O)c(O)c2)c1 [Example 261] |  | 20 µM
52 | Cc1nc(CNC(=O)C(C)(C)C)sc1-c1cccc(-c2ccc(C(=O)O)cc2)n1 [Example 62] |  | 1.8 µM
53 | Cc1nc(C)c(-c2ccc(C)c(-c3ccc(C(=O)O)cc3)c2)s1 [Example 305] |  | 82 µM
54 | Cc1nc(CO)sc1-c1cccc(-c2ccc(C(=O)NCC(=O)N3CCC(C(=O)O)C3)cc2)n1 (centres unmarked) [Example 92] |  | > 25 µM
55 | Cc1nc(C)c(-c2cccc(-c3ccc(C(=O)O)cc3)c2)s1 [Example 326] |  | 6.4 µM
56 | Cc1nc(COCc2ccccn2)sc1-c1csc(-c2cc(O)c(C(=O)O)cc2F)n1 [Example 144] |  | 0.2 µM
57 | Cc1nc(C)c(/C=C/c2ccc(C(=O)O)c(O)c2)s1 [Example 333] |  | 11 µM
58 | Cc1nc(C)c(-c2cc(-c3ccc(C(=O)O)cc3)ccc2C)s1 [Example 307] |  | > 250 µM
59 | Cc1nc(CNC(C)c2cccnc2)sc1-c1csc(-c2cc(O)c(C(=O)O)cc2F)n1 (centres unmarked) [Example 170] |  | 1.2 µM

From patent US20230348450A1, “CARBOXYLIC ACID-CONTAINING COMPOUNDS AS MODULATORS OF BIS-PHOSPHOGLYCERATE MUTASE FOR THE TREATMENT OF SICKLE CELL DISEASE” (Genzyme Corporation, priority 2020, published 2023)
